Assay results: patent US20260201008A1, “SECRETIN-DERIVED GLP1R SELECTIVE AGONISTS” (GUBRA A/S, priority 2023, published 2026)
Read-outs that look alike come from different tables or passages of the source. Numbered stars: 1 amine (or outer) side, 2 acyl side, 3 side chain; on linkers, the order of the positions; unused ones are H or OH. Square brackets hold non-standard residues; d marks the D form. Side chains are listed from the residue outwards. Peptide text beside a SMILES is read from it. * marks the point of attachment. C20 diacid = O=C(O)CCCCCCCCCCCCCCCCCCC(=O)*; γGlu = O=C(O)[C@H](CCC(=O)[*:2])N[*:1]; AEEA = NCCOCCOCC(=O)O; Aib = CC(C)(N)C(=O)O

How the values were obtained:
[1] = Turbidity of crude library peptides (absorbance at 600 nm); type: physicochemical; details: Physical stability of peptides
Summary of the method: (§1)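 Turbidity is the absorbance at 600 nm, taken before heating. Fibril signal is the mean ThT emission at 480 nm (450 nm excitation), read every 10 min over 72 h at 40° C with 700 rpm shaking between reads. Peptides at 267 μM, pH 4.0 acetate or pH 7.0 phosphate buffer (50 mM), 4 μM ThT final.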

[2] = Fibril formation of crude library peptides (Thioflavin T); type: physicochemical; set-up: key: average ThT fluorescence emission at 480 nm (ex 450 nm), raw units; details: Physical stability of peptides
Summary of the method: as §1

[3] = biological target: GLP1R (Homo sapiens, UniProt P43220); test: hGLP1R potency, cAMP accumulation in CHO-K1 cells stably overexpressing hGLP1R; type: cell-based; set-up: host or cells: CHO-K1; details: for EC50: cAMP accumulation; for SCTR EC50/GLP1R EC50 ratio: cAMP accumulation in CHO-K1 cells
Summary of the method: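 EC50 derives from variable-slope nonlinear regression of cAMP HTRF signal, with purified peptides tested as 11 three-fold dilutions in duplicate. Assay: hGLP1R-overexpressing CHO-K1 cells, 0.5 mM IBMX, 0.05% casein in DPBS, 30 min room-temperature stimulation, GLP-1(7-36) as reference agonist.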

[4] = biological target: SCTR (Homo sapiens, UniProt P47872); test: hSCTR potency, cAMP accumulation in CHO-K1 cells stably overexpressing hSCTR; type: cell-based; set-up: alternatively Euroscreen ES-712-AF; FAST-0161L; host or cells: CHO-K1; details: cAMP accumulation
Summary of the method: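 EC50 derived from variable-slope nonlinear regression on 11-point, 3-fold series run in duplicate (crude peptides: 5 points, 10-fold, n=1). Compound stimulation lasted 30 min at room temperature in casein/IBMX-containing DPBS (0.05%, 0.5 mM), 2000 cells/well; cAMP detected by time-resolved FRET after one hour.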

[5] = CHO-K1 cells overexpressing hGLP1R, read-out: hGLP1R pEC50 (converted)
[6] = selectivity for hGLP1R over hSCTR
[7] = CHO-K1 cells overexpressing hSCTR, read-out: hSCTR pEC50 (converted)

Chain of GLP1R (P43220 24-463): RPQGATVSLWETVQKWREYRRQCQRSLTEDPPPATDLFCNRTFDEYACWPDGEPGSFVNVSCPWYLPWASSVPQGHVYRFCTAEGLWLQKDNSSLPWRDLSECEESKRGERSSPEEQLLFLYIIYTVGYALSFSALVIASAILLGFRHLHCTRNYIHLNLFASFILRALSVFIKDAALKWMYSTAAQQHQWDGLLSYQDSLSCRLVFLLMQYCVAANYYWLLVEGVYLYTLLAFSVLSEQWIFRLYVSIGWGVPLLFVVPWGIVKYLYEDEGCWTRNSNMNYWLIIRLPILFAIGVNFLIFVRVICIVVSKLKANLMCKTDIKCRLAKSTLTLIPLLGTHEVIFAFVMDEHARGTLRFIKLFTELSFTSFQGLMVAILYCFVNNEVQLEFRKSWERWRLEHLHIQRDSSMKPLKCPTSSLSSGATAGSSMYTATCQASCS
Chain of SCTR (P47872 23-440): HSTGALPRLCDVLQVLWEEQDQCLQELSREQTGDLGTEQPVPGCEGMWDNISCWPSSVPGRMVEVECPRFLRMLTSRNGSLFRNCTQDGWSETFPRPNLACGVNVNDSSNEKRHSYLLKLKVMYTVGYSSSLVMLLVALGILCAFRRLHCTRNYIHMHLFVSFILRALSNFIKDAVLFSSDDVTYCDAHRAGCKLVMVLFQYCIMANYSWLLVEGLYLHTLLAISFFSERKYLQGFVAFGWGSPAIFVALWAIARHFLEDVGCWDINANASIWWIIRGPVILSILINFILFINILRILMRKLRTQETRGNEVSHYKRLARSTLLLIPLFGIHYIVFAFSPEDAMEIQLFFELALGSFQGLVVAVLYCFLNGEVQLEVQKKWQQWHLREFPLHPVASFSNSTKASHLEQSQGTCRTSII

SMILES | Turbidity (pH 7) [1] | Fibril formation [2] | EC50 [3, 5] [nM] | SCTR EC50/GLP1R EC50 ratio [3, 6] | EC50 [4, 7] [nM] | EC50 ([3]; CHO-K1 cells stably overexpressing hGLP1R, read-out: hGLP1R potency (pEC50) (converted)) [nM] | SCTR EC50/GLP1R EC50 ratio ([3]; selectivity ratio, hSCTR vs hGLP1R) | EC50 ([4]; CHO-K1 cells stably overexpressing hSCTR, read-out: hSCTR potency (pEC50) (converted)) [nM] | Selectivity ([3]; SCTR EC50/GLP1R EC50 ratio) | EC50 ([3]; CHO-K1 cells overexpressing hGLP1R, read-out: pEC50 hGLPR1 (converted)) [nM] | EC50 ([4]; CHO-K1 cells overexpressing hSCTR, read-out: pEC50 hSCTR (converted)) [nM]
CC[C@H](C)[C@H](NC(=O)[C@H](Cc1ccccc1)NC(=O)[C@H](CCCNC(=N)N)NC(=O)[C@H](CCC(N)=O)NC(=O)[C@H](CC(C)C)NC(=O)[C@H](C)NC(=O)[C@H](C)NC(=O)CNC(=O)[C@H](CCC(=O)O)NC(=O)[C@H](CC(C)C)NC(=O)[C@H](CC(C)C)NC(=O)[C@H](Cc1c[nH]c2ccccc12)NC(=O)[C@H](CO)NC(=O)C(C)(C)NC(=O)[C@H](CC(=O)O)NC(=O)[C@H](CO)NC(=O)[C@@H](NC(=O)[C@H](Cc1ccccc1)NC(=O)[C@@H](NC(=O)CNC(=O)[C@H](CCC(=O)O)NC(=O)C(C)(C)NC(=O)[C@@H](N)Cc1c[nH]cn1)[C@@H](C)O)[C@@H](C)O)C(=O)N[C@@H](CCC(N)=O)C(=O)N[C@@H](Cc1c[nH]c2ccccc12)C(=O)N[C@@H](CC(C)C)C(=O)N[C@H](C(N)=O)C(C)C [compound 108] (H-H[Aib]EGTFTSD[Aib]SWLLEGAALQRFIQWLV-NH2) | 0.72 | 20603 | 0.0794 | 14555 | 1260 | – | – | – | – | – | –
CC(C)C[C@H](NC(=O)[C@H](Cc1ccccc1)NC(=O)[C@H](CCCNC(=N)N)NC(=O)[C@H](CCC(N)=O)NC(=O)[C@H](CCC(N)=O)NC(=O)[C@H](C)NC(=O)[C@H](C)NC(=O)[C@H](Cc1ccccc1)NC(=O)[C@H](CCC(=O)O)NC(=O)[C@H](CCCCNC(=O)COCCOCCNC(=O)COCCOCCNC(=O)CC[C@H](NC(=O)CCCCCCCCCCCCCCCCCCC(=O)O)C(=O)O)NC(=O)[C@H](CC(C)C)NC(=O)[C@@H](NC(=O)[C@H](CO)NC(=O)[C@@H](NC(=O)[C@H](CC(=O)O)NC(=O)[C@H](CO)NC(=O)[C@@H](NC(=O)[C@H](Cc1ccccc1)NC(=O)[C@@H](NC(=O)CNC(=O)[C@H](CCC(=O)O)NC(=O)C(C)(C)NC(=O)[C@@H](N)Cc1c[nH]cn1)[C@@H](C)O)[C@@H](C)O)C(C)C)[C@@H](C)O)C(=O)N[C@@H](CCC(=O)O)C(=O)N[C@@H](Cc1c[nH]cn1)C(=O)N[C@@H](CC(C)C)C(=O)N[C@H](C(N)=O)C(C)C [compound 100] (H-H[Aib]EGTFTSDVSTLK([AEEA-AEEA-γGlu-C20 diacid])EFAAQQRFLEHLV-NH2) | 0.08 | 24482 | 0.126 | 6301 | 794 | – | – | – | – | – | –
CC(C)C[C@H](NC(=O)[C@H](Cc1ccccc1)NC(=O)[C@H](CCCNC(=N)N)NC(=O)[C@H](CCC(N)=O)NC(=O)[C@H](CC(C)C)NC(=O)C(C)(C)NC(=O)[C@H](C)NC(=O)[C@H](CCC(=O)O)NC(=O)[C@H](CCC(=O)O)NC(=O)[C@H](CCCCNC(=O)COCCOCCNC(=O)COCCOCCNC(=O)CC[C@H](NC(=O)CCCCCCCCCCCCCCCCCCC(=O)O)C(=O)O)NC(=O)[C@H](CC(C)C)NC(=O)[C@H](Cc1c[nH]c2ccccc12)NC(=O)[C@H](CO)NC(=O)[C@@H](NC(=O)[C@H](CC(=O)O)NC(=O)[C@H](CO)NC(=O)[C@@H](NC(=O)[C@H](Cc1ccccc1)NC(=O)[C@@H](NC(=O)CNC(=O)[C@H](CCC(=O)O)NC(=O)C(C)(C)NC(=O)[C@@H](N)Cc1c[nH]cn1)[C@@H](C)O)[C@@H](C)O)C(C)C)C(=O)N[C@@H](CCC(=O)O)C(=O)N[C@@H](Cc1c[nH]cn1)C(=O)N[C@@H](CC(C)C)C(=O)N[C@H](C(N)=O)C(C)C [compound 174] (H-H[Aib]EGTFTSDVSWLK([AEEA-AEEA-γGlu-C20 diacid])EEA[Aib]LQRFLEHLV-NH2) | 0.08 | 3729 | 0.0126 | 7022 | 100 | – | – | – | – | – | –
CC(C)C[C@H](NC(=O)[C@H](Cc1ccccc1)NC(=O)[C@H](CCCNC(=N)N)NC(=O)[C@H](CCC(N)=O)NC(=O)[C@H](CCC(N)=O)NC(=O)[C@H](C)NC(=O)[C@H](C)NC(=O)[C@H](CCC(=O)O)NC(=O)[C@H](CCC(=O)O)NC(=O)[C@H](CCCCNC(=O)COCCOCCNC(=O)COCCOCCNC(=O)CC[C@H](NC(=O)CCCCCCCCCCCCCCCCCCC(=O)O)C(=O)O)NC(=O)[C@H](CC(C)C)NC(=O)[C@@H](NC(=O)[C@H](CO)NC(=O)[C@@H](NC(=O)[C@H](CC(=O)O)NC(=O)[C@H](CO)NC(=O)[C@@H](NC(=O)[C@H](Cc1ccccc1)NC(=O)[C@@H](NC(=O)CNC(=O)[C@H](CCC(=O)O)NC(=O)C(C)(C)NC(=O)[C@@H](N)Cc1c[nH]cn1)[C@@H](C)O)[C@@H](C)O)C(C)C)C(C)C)C(=O)N[C@@H](CCC(=O)O)C(=O)N[C@@H](Cc1c[nH]cn1)C(=O)N[C@@H](CC(C)C)C(=O)N[C@H](C(N)=O)C(C)C [compound 90] (H-H[Aib]EGTFTSDVSVLK([AEEA-AEEA-γGlu-C20 diacid])EEAAQQRFLEHLV-NH2) | 0.09 | 5668 | 0.0316 | 51322 | 1580 | – | – | – | – | – | –
CC[C@H](C)[C@H](NC(=O)[C@H](Cc1ccccc1)NC(=O)[C@H](CCCNC(=N)N)NC(=O)[C@H](CCC(N)=O)NC(=O)[C@H](CC(C)C)NC(=O)[C@H](C)NC(=O)[C@H](C)NC(=O)CNC(=O)[C@H](CCC(=O)O)NC(=O)[C@H](CC(C)C)NC(=O)[C@H](CC(C)C)NC(=O)[C@H](Cc1ccc(O)cc1)NC(=O)[C@H](CO)NC(=O)[C@H](Cc1c[nH]c2ccccc12)NC(=O)[C@H](CC(=O)O)NC(=O)[C@H](CO)NC(=O)[C@@H](NC(=O)[C@H](Cc1ccccc1)NC(=O)[C@@H](NC(=O)CNC(=O)[C@H](CCC(=O)O)NC(=O)C(C)(C)NC(=O)[C@@H](N)Cc1c[nH]cn1)[C@@H](C)O)[C@@H](C)O)C(=O)N[C@@H](CCC(N)=O)C(=O)N[C@@H](Cc1c[nH]c2ccccc12)C(=O)N[C@@H](CC(C)C)C(=O)N[C@H](C(N)=O)C(C)C [compound 189] (H-H[Aib]EGTFTSDWSYLLEGAALQRFIQWLV-NH2) | 0.37 | 94029 | – | – | – | 0.0158 | 10195 | 158 | – | – | –
CC(C)C[C@H](NC(=O)[C@H](CCC(=O)O)NC(=O)[C@H](CCCCNC(=O)COCCOCCNC(=O)COCCOCCNC(=O)CC[C@H](NC(=O)CCCCCCCCCCCCCCCCCCC(=O)O)C(=O)O)NC(=O)[C@H](CC(C)C)NC(=O)[C@H](CCC(=O)O)NC(=O)[C@H](CO)NC(=O)[C@@H](NC(=O)[C@H](CC(=O)O)NC(=O)[C@H](CO)NC(=O)[C@@H](NC(=O)[C@H](Cc1ccccc1)NC(=O)[C@@H](NC(=O)CNC(=O)[C@H](CCC(=O)O)NC(=O)C(C)(C)NC(=O)[C@@H](N)Cc1c[nH]cn1)[C@@H](C)O)[C@@H](C)O)C(C)C)C(=O)N[C@@H](C)C(=O)N[C@@H](C)C(=O)N[C@@H](CCC(=O)O)C(=O)N[C@@H](CCC(N)=O)C(=O)N[C@@H](CCCNC(=N)N)C(=O)N[C@@H](Cc1ccccc1)C(=O)N[C@@H](CC(C)C)C(=O)N[C@@H](CCC(=O)O)C(=O)N[C@@H](Cc1c[nH]cn1)C(=O)N[C@@H](CC(C)C)C(=O)N[C@H](C(N)=O)C(C)C [compound 36] (H-H[Aib]EGTFTSDVSELK([AEEA-AEEA-γGlu-C20 diacid])ELAAEQRFLEHLV-NH2) | 0.09 | 9625 | – | – | – | – | – | – | 11143 | 0.0316 | 316
CC[C@H](C)[C@H](NC(=O)[C@H](Cc1ccccc1)NC(=O)[C@H](CCCNC(=N)N)NC(=O)[C@H](CCC(N)=O)NC(=O)[C@H](CC(C)C)NC(=O)[C@H](C)NC(=O)[C@H](C)NC(=O)CNC(=O)[C@H](CCC(=O)O)NC(=O)[C@H](CC(C)C)NC(=O)[C@H](CC(C)C)NC(=O)[C@H](Cc1ccccc1)NC(=O)[C@H](CO)NC(=O)[C@@H](NC(=O)[C@H](CC(=O)O)NC(=O)[C@H](CO)NC(=O)[C@@H](NC(=O)[C@H](Cc1ccccc1)NC(=O)[C@@H](NC(=O)CNC(=O)[C@H](CCC(=O)O)NC(=O)C(C)(C)NC(=O)[C@@H](N)Cc1c[nH]cn1)[C@@H](C)O)[C@@H](C)O)C(C)C)C(=O)N[C@@H](CCC(N)=O)C(=O)N[C@@H](Cc1c[nH]c2ccccc12)C(=O)N[C@@H](CC(C)C)C(=O)N[C@H](C(N)=O)C(C)C [compound 177] (H-H[Aib]EGTFTSDVSFLLEGAALQRFIQWLV-NH2) | 0.53 | 260000 | 0.0158 | 30839 | 501 | – | – | – | – | – | –
